In US7576222B2, “Alkynyl-containing tryptophan derivative inhibitors of TACE/matrix metalloproteinase” (priority 2004, dated 2009):
Read-outs that look alike come from different tables or passages of the source.

Legend:
[1] = molecular target: T1, catalytic domain of the recombinant TACE protein (Homo sapiens, UniProt P78536); assay: TACE FRET assay using TACE cat; type: biochemical
T1 construct: The catalytic domain of the recombinant TACE protein was expressed and purified; made in house
Method in brief: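 Initial fluorescence rate of Abz-[sequence]-Dpa pro-TNF-α peptide cleavage (substrate from 2 mM stock) read after adding substrate to enzyme (1 ug/ml) preincubated 10 min, room temperature, with inhibitor.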

[2] = molecular target: T2, recombinant human catalytic domain of MMP-1 (Homo sapiens, UniProt P03956); assay: In-vitro fluorescence (FRET) assay of MMP-1 activity; type: biochemical
T2 construct: the recombinant human catalytic domain of MMP-1
T2 sequence (P03956 100-269 limits assumed): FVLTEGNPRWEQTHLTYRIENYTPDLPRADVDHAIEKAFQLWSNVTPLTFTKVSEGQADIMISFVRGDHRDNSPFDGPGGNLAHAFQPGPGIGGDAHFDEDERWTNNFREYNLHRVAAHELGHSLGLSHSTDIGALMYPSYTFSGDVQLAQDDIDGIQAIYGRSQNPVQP
Source text: In-Vitro Fluorescence Assay of MMP-1 Activity
(§1) A continuous assay was used in which the substrate is a synthetic peptide containing a fluorescent group (7-methoxycoumarin; Mca) that is quenched by energy transfer to a 2,4-dinitrophenyl group. See Knight, C. G. et al., FEBS Lett. (1992) 296: 263-266, incorporated herein by reference in its entirety. When the peptide was cleaved by MMP, a large increase in fluorescence was observed. The source of enzyme in the assay was the recombinant human catalytic domain of MMP-1. See Zhang, Y et al., Journal of Pharmacology and Experimental Therapeutics (JPET) (2004) 309:348-355, incorporated by reference in its entirety. The substrate used was Mca-PQGL-(3-[2,4-dinitrophenyl]-L-2,3-diaminopropionyl)-AR-OH (denoted as Wammp-5, custom synthesized by AnaSpec, Inc., San Jose, Calif.). The assay buffer consisted of 50 mM Hepes (pH 7.4), 100 mM NaCl, 5 mM CaCl2, and 0.005% Brij-35. Each well of black polystyrene 96-well plates contained a 200 μl reaction mixture consisting of assay buffer, purified MMP (final concentration of 25 ng/ml, prepared by diluting with the assay buffer), and varied concentrations of inhibitor (prepared by serially diluting a given inhibitor in DMSO in 96-well polypropylene plate). The plates were then incubated at 30° C. for 15 minutes. The enzymatic reactions were initiated by adding the substrate to a final concentration of 20 μM, and mixing 10 times with a pipette. The final DMSO concentration in the assay was 6.0%. The initial rate of the cleavage reaction was determined at 30° C. with a fluorescence plate reader (excitation filter of 330 nm and emission filter of 395 nm) immediately after substrate addition.
(§2) Plots of the inhibitor concentration versus the percent inhibition were fit to the following equation: y=(a−d)/[1+(x/c)^b]+d, a general sigmoidal curve with Hill slope, a to d. x is the inhibitor concentration under test. “y” is the percent inhibition. “a” is the limiting response as x approaches zero. As x increases without bound, y tends toward its limit d. “c” is the inflection point (IC50) for the curve. That is, y is halfway between the lower and upper asymptotes when x=c. “b” is the slope factor or Hill coefficient.

[3] = molecular target: T3, recombinant human catalytic domain of MMP-13 (Homo sapiens, UniProt P45452); assay: biochemical
T3 construct: catalytic domain of MMP-13 (165 amino acids, residues 104-268, 19 kDa)
Source text: as §1, with “When the peptide was cleaved by MMP, a large increase in fluorescence was observed. The source of enzyme in the assay was the recombinant human catalytic domain of MMP-1.” left out
as §2
In-Vitro Fluorescence Assay of MMP-13 Activity
See Zhang, Y et al., Journal of Pharmacology and Experimental Therapeutics (JPET) (2004) 309:348-355, incorporated by reference in its entirety.

recombinant human MMP-2 = molecular target: T4, recombinant human MMP-2 (Homo sapiens, UniProt P08253); assay: In-vitro fluorescence (FRET) assay of MMP-2 activity; type: biochemical
T4 construct: purchased Oncogene Research Products (Calbiochem) PF023
T4 sequence (P08253 110-660): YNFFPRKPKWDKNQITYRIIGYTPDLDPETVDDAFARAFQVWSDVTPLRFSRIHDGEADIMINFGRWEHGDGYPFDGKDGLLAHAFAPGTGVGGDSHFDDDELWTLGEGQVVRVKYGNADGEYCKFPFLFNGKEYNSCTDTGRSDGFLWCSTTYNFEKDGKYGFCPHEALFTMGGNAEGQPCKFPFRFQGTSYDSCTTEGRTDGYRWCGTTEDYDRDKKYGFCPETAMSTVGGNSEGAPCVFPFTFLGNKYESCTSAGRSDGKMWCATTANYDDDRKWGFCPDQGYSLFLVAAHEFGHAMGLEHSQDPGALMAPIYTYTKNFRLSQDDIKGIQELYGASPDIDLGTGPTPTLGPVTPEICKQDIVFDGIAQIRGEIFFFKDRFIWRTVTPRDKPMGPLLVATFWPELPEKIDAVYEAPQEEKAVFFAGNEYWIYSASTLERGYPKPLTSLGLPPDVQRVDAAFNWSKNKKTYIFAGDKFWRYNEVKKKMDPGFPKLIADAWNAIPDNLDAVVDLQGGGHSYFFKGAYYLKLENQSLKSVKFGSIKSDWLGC
Source text: as §1, with “When the peptide was cleaved by MMP, a large increase in fluorescence was observed. The source of enzyme in the assay was the recombinant human catalytic domain of MMP-1.” left out
as §2
In-Vitro Fluorescence Assay of MMP-2 Activity

[4] = molecular target: T5, recombinant human catalytic domain of MMP-14 (Homo sapiens, UniProt P50281); assay: biochemical
T5 construct: 177 amino acids corresponding to Tyr89-Gly265 of mature human enzyme; 20 kDa; purchased Chemicon International, Inc. CC1041
Source text: as §1, with “When the peptide was cleaved by MMP, a large increase in fluorescence was observed. The source of enzyme in the assay was the recombinant human catalytic domain of MMP-1.” left out
as §2
In-Vitro Fluorescence Assay of MMP-14 Activity

[5] = test system: TNF-α Secretion in Raw Cells (Raw 264.7 cells); assay: Cell-based assay for inhibition of TNF-α secretion in Raw cells; details: read-out: TNF-α Secretion in Raw Cells IC50
Method: Cell-Based Assay for Inhibition of TNF-A Secretion in Raw Cells
(§3) The basic measurement of the assay is the percentage of inhibition of TNF-α secretion and the IC50 determination by a fitting with the model-39 of LSW data analysis tool.
Raw 264.7 cells (ATCC Cat No. TIB-71) are maintained in DMEM medium containing 10% of serum, P/S, and Glutamine. […] For testing compounds, cells are cultured to confluence and are seeded the day before the experiment in 24 well culture dishes at 0.5 to 1 million/ml/well. On the next morning, the medium from the overnight culture is replaced with the fresh growth medium. The compounds are added at various concentrations at the 0.2% of final DMSO concentrations (10 μl of a 20% DMSO solution containing testing compounds is added to each well). The cells are pre-incubated with compounds for 1 hour. LPS (Sigma, L2262) is added to cells at a final concentration of 100 ng/ml (10 μl of a […] LPS solution freshly diluted from a 1 mg/ml LPS stock solution in PBS is added to each well) and cells are further incubated for 4 hours at 37° C. One milliliter (1 ml) of the supernatant was collected, cells are spun down and the supernatants are frozen at −80° C. until use.
The TNF-α and other proinflammatory cytokines were detected by ELISA assay according to the manufacturer's instruction (Biosource International, Inc., Camarillo, Calif.) (For IL-1b measurement in Raw cells, one round of freeze and thaw of the cells was required.)

[6] = test system: TNF-α Secretion in Human Whole Blood; assay: Human whole blood assay for LPS-induced TNF-α secretion; type: cell-based; details: fresh human blood, LPS 100 ng/ml, TNF-α by ELISA
Source text: as §3

[7] = TACE FRET assay, catalytic domain of recombinant TACE, read-out: TACE IC50
[8] = Raw 264.7 cells, LPS 100 ng/ml, 4 hours, TNF-α by ELISA

T1 sequence (P78536 223-474 limits assumed): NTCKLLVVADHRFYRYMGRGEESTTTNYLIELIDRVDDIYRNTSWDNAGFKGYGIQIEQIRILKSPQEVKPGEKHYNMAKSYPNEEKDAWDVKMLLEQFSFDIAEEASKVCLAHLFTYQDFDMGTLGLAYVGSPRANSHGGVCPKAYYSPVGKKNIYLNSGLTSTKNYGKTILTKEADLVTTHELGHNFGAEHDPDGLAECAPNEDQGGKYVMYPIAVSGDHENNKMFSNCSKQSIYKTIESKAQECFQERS

`CC#CCOc1ccc(S(=O)(=O)NC(Cc2c[nH]c3ccc(OC)cc23)C(=O)O)cc1` (racemic) [Example 4, N-{[4-(but-2-ynyloxy)phenyl]sulfonyl}-5-methoxytryptophan] showed an IC50 [1] of 0.36 µM, an inhibition at 1000 µM ([2]; read-out: MMP-1 Inhibition) of 33% and an inhibition at 15 µM ([3]; read-out: MMP-13 Inhibition) of 50%. It also gave an IC50 (recombinant human MMP-2) of 7.84 µM and an IC50 [4] of 22.7 µM.

With `CC#CCOc1ccc(S(=O)(=O)NC(Cc2c[nH]c3ccc(C)cc23)C(=O)O)cc1` (racemic) [Example 6, N-{[4-(but-2-ynyloxy)phenyl]sulfonyl}-5-methyltryptophan] the IC50 [1] was 0.28 µM, the IC50 [3] was 6.87 µM and the IC50 (recombinant human MMP-2) was 1.16 µM.

`CC#CCOc1ccc(S(=O)(=O)NC(Cc2c[nH]c3ccc(OCc4ccccc4)cc23)C(=O)O)cc1` (racemic) [Example 20, 5-(benzyloxy)-N-{[4-(but-2-ynyloxy)phenyl]sulfonyl}tryptophan] was tested, and the IC50 [1] was 0.75 µM, the IC50 [3] was 15.3 µM and the IC50 (recombinant human MMP-2) was 7.85 µM.

`CC#CCOc1ccc(S(=O)(=O)N[C@H](Cc2cn(CCCCOc3ccccc3)c3ccccc23)C(=O)O)cc1` [Example 24, N-{[4-(but-2-ynyloxy)phenyl]sulfonyl}-1-(4-phenoxybutyl)-D-tryptophan] was tested, and the IC50 [1, 7] was 1.25 µM and the IC50 ([5]; Mus musculus, RAW264.7, 4 h) was > 60 µM.

`CC#CCOc1ccc(S(=O)(=O)N[C@H](Cc2cn(Cc3ccccc3-c3ccccc3)c3ccccc23)C(=O)O)cc1` [Example 27, 1-(1,1′-biphenyl-2-ylmethyl)-N-{[4-(but-2-ynyloxy)phenyl]sulfonyl}-D-tryptophan] was tested, and the IC50 [1, 7] was 0.97 µM and the IC50 ([5]; Mus musculus, RAW264.7, 4 h) was > 60 µM.

For `CC#CCOc1ccc(S(=O)(=O)N[C@H](Cc2cn(Cc3ccc(F)cc3)c3ccccc23)C(=O)O)cc1` [Example 28, N-{[4-(but-2-ynyloxy)phenyl]sulfonyl}-1-(4-fluorobenzyl)-D-tryptophan], the IC50 [1, 7] was 1.9 µM, the IC50 [3] was 17 µM and the IC50 (recombinant human MMP-2) was 3.97 µM.

In the case of `CC#CCOc1ccc(S(=O)(=O)N[C@H](Cc2cn(Cc3ccc(OC)cc3)c3ccccc23)C(=O)O)cc1` [Example 35, N-{[4-(but-2-ynyloxy)phenyl]sulfonyl}-1-(4-methoxybenzyl)-D-tryptophan], the IC50 [1, 7] is reported as 0.08 µM, the inhibition at 33 µM ([2]; read-out: MMP-1 Inhibition) is reported as 14% and the IC50 ([5]; Mus musculus, RAW264.7, 4 h) is reported as > 60 µM. The IC50 [4] was 13 µM.

`CC#CCOc1ccc(S(=O)(=O)NC(Cc2cn(Cc3ccc(OC)cc3)c3ccc(C)cc23)C(=O)O)cc1` (centres unmarked) [Example 47, N-{[4-(but-2-ynyloxy)phenyl]sulfonyl}-1-(4-methoxybenzyl)-5-methyltryptophan] was tested, and the inhibition at 67 µM ([2]; read-out: MMP-1 Inhibition) was 30%, the IC50 (recombinant human MMP-2) was 0.66 µM and the IC50 [4] was 11.6 µM.

For `CC#CCOc1ccc(S(=O)(=O)N[C@@H](Cc2c(C)n(Cc3ccc(F)cc3)c3ccc(OC)cc23)C(=O)O)cc1` [Example 199, N-{[4-(but-2-ynyloxy)phenyl]sulfonyl}-1-(4-fluorobenzyl)-5-methoxy-2-methyltryptophan], the IC50 [1] was 0.32 µM and the IC50 ([5]; Mus musculus, RAW264.7, 4 h) was > 60 µM.

With `CC#CCOc1ccc(S(=O)(=O)N[C@@H](Cc2c[nH]c3ccc(C)cc23)C(=O)O)cc1` [Example 218, N-{[4-(but-2-ynyloxy)phenyl]sulfonyl}-5-methyl-L(or D)-tryptophan] the IC50 [1, 7] was 0.14 µM, the “MMP-1 Inhibition” value ([2]; Conc. 160 μM) was 30% and the IC50 [3] was 1.81 µM. For the same compound, the IC50 [6] was > 50 µM, the IC50 (recombinant human MMP-2) was 0.27 µM and the IC50 [5, 8] was 7.11 µM. It also gave an IC50 [4] of 6.82 µM.

With `CC#CCOc1ccc(S(=O)(=O)N[C@@H](Cc2c[nH]c3ccc(OC)cc23)C(=O)O)cc1` [Example 221, N-{[4-(but-2-ynyloxy)phenyl]sulfonyl}-5-methoxy-D(or L)-tryptophan] the IC50 [1, 7] was 0.14 µM, the “MMP-1 Inhibition” value ([2]; Conc. 83 μM) was 9% and the IC50 [3] was 13.6 µM. The IC50 (recombinant human MMP-2) was 1.27 µM, the IC50 [5, 8] was 57 µM and the IC50 [4] was 20.7 µM.

For `CC#CCOc1ccc(S(=O)(=O)N[C@@H](Cc2c[nH]c3ccc(OCc4ccccc4)cc23)C(=O)O)cc1` [Example 224, 5-(benzyloxy)-N-{[4-(but-2-ynyloxy)phenyl]sulfonyl}-L(or D)-tryptophan], the “MMP-1 Inhibition” value ([2]; Conc. 83 μM) was 19%, the IC50 [3] was 4.44 µM and the IC50 (recombinant human MMP-2) was 2.45 µM. It also gave an IC50 [4] of 19.7 µM.
